Measurements from patent US7078059B2, “Treatment of bone diseases” (Shire Holdings AG, priority 2000, dated 2006).
Several values for one entry are separate records, joined by “and”; a condition that tells them apart may be missing. Equal values may be shown once.

Tests used:
[1] = system: osteoclasts cultured on bone slices; assay: In vitro bone resorption assay (osteoclasts on bovine bone slices, CrossLaps); format: cell-based, rat; settings: for Relative medium CrossLaps amounts per osteoclast, replicates 1-6 / Relative medium CrossLaps amounts per osteoclast, Mean ± SD: first bone resorption assay; for Relative medium CrossLaps amounts per osteoclast, replicates 1-6 / Relative medium CrossLaps amounts per osteoclast, Mean ± SD / Relative medium CrossLaps amounts per osteoclasts, Mean ± SD / Relative medium CrossLaps amounts per osteoclasts, replicates 1-6: relative to mean of baseline group, 72 hours; for Relative medium CrossLaps amounts per osteoclast, replicates 1-6: LA number = ng/ml lanthanum in culture medium; for Relative medium CrossLaps amounts per osteoclast, replicates 1-6 / Relative medium CrossLaps amounts per osteoclast, Mean ± SD / Relative medium CrossLaps amounts per osteoclasts, Mean ± SD / Relative medium CrossLaps amounts per osteoclasts, replicates 1-6 / Combined results on bone resorption (relative medium CrossLaps per osteoclast), Mean ± SD: Control = Baseline+10 nM bafilomycin Al; for Relative medium CrossLaps amounts per osteoclast, Mean ± SD / Relative medium CrossLaps amounts per osteoclasts, Mean ± SD / Relative medium CrossLaps amounts per osteoclasts, replicates 1-6 / Combined results on bone resorption (relative medium CrossLaps per osteoclast), Mean ± SD / Effect on bone resorption / bone resorbing activity of mature osteoclasts, in words: LA number = ng/ml lanthanum; for Relative medium CrossLaps amounts per osteoclasts, Mean ± SD / Relative medium CrossLaps amounts per osteoclasts, replicates 1-6: second bone resorption assay; for Combined results on bone resorption (relative medium CrossLaps per osteoclast), Mean ± SD: tables 1 and 2 combined, number 12; for Effect on bone resorption / bone resorbing activity of mature osteoclasts, in words: lanthanum (III) ion = any of the concentrations tested (100-15000 ng/ml), bafilomycin Al 10 nM; for Bone resorption: significance of activation/inhibition vs baseline
Source text: The method of osteoclast culture on bone slices was originally described by Boyde et al. (1984) and by Chambers et al. (1984). For cell culture, we used a method slightly modified from the original methods (Lakkakorpi et al. 1989, Lakkakorpi and Väänänen, 1991). The rate of bone resorption in the cultures was originally determined by counting the number of resorption pits on each bone or dentine slice using a microscope with phase contrast objectives (Sundquist et al. 1990). Later, the pits were visualized using Wheat Germ Agglutinin lectin that specifically binds to the resorbed area in bone (Selander et al. 1994), making it possible to quantify the total resorbed area using a microscope and computer-assisted image analysis system (Laitala and Väänänen 1994, Hentunen et al. 1995). We used a commercially available method (CrossLaps for cultures, Osteometer Biotech, Herlev, Denmark) to detect the amount of collagen cross-links released into the culture medium as an index of the bone resorption rate (Bagger et al., 1999).
The study protocol uses a method where osteoclasts are cultured on bone slices and allowed to resorb bone. The system is ideal for determining the effect of drug candidates on the bone resorbing activity of osteoclasts. Drug candidates are added into the cell cultures at the beginning of the culture period, and the osteoclasts allowed to resorb bone for 3 days. The amount of bone resorbed during the culture period is determined and compared to the amount of bone resorbed in control cultures (those cultured in the absence of drug candidates).
Transverse 0.1 mm thick slices of cortical bone were cut from the diaphysis of fresh bovine femurs (Atria Slaughterhouse, Oulu, Finland) using a low-speed diamond saw, cleaned by ultrasonication in multiple changes of sterile distilled water, and stored at 4° C. before use. Long bones were removed from 1-day-old rat pups killed by decapitation. […] The resulting suspension of dispersed cells and bone fragments was agitated using a plastic pipette. Larger fragments were allowed to sediment for a few seconds and the supernatant was seeded onto the bone slices pre-wetted in the medium. After a settling period of 30 minutes at 37° C., the bone slices were washed by dipping in fresh medium, and then transferred to wells in 24-well culture dishes containing osteoclast culture medium. The bone slices were incubated in a humidified atmosphere of 95% air and 5% carbon dioxide at 37° C. for 72 hours.
After the culture period, the amount of bone resorption was determined by measuring the amount of collagen cross-links released into the culture medium using a commercial kit (CrossLaps for cultures, Osteometer Biotech) according to the manufacturer s instructions. The number of osteoclasts in each culture was determined by microscopic counting of the amount of TRAP-positive multinuclear cells, and the results are given as the number of collagen cross-links released per one osteoclast.
In the bone resorption assay, the amount of medium CrossLaps (nM) released into the culture medium was determined and the number of osteoclasts in the corresponding cultures calculated. The medium CrossLaps amounts were divided with the osteoclast numbers in the corresponding cultures, and the results are given on Table 1 as relative medium CrossLaps amounts per osteoclasts. The relative values were obtained by dividing each individual value with the mean value of the baseline group.

[2] = system: iliac crest of growing immature dogs
Procedure: The specimens taken from the iliac crest of growing immature dogs were analysed. The group was divided into a control and treatment group. The treatment group received 1000 mg/Kg/day of lanthanum carbonate administered orally twice daily. The groups were run for 13 weeks, after which time samples of bone were taken vertically through the iliac crest, embedded in methyl methacrylate based resin, sectioned and stained with toluidine blue and Von Kossa stain.

[3] = system: osteoclasts; settings: extracellular application; cited from earlier work
[4] = system: limb bud mesodermal cells; settings: organoid cultures; cited from earlier work

SMILES: O.O.O.O.O=C([O-])[O-].O=C([O-])[O-].O=C([O-])[O-].[La+3].[La+3] [LA 100, lanthanum carbonate tetrahydrate]
- Relative medium CrossLaps amounts per osteoclast, replicates 1-6 [1]: 0.57 and 0.56 and 1.13 and 0.78 and 0.71 (2×)
- Relative medium CrossLaps amounts per osteoclast, Mean ± SD [1]: 0.74 ± 0.21
- Relative medium CrossLaps amounts per osteoclasts, Mean ± SD [1]: 0.74 ± 0.21
- Relative medium CrossLaps amounts per osteoclasts, replicates 1-6 [1]: 0.38 and 0.75 and 0.78 and 0.94 and 0.67 and 0.96
- Combined results on bone resorption (relative medium CrossLaps per osteoclast), Mean ± SD [1]: 0.74 ± 0.20

SMILES: O.O.O.O.O=C([O-])[O-].O=C([O-])[O-].O=C([O-])[O-].[La+3].[La+3] [LA 500, lanthanum carbonate tetrahydrate]
- Effect on bone resorption / bone resorbing activity of mature osteoclasts, in words [1]: dose-dependent inhibition of bone resorption
- Relative medium CrossLaps amounts per osteoclast, replicates 1-6 [1]: 1.04 and 0.58 and 1.38 and 0.75 and 0.88 and 0.63
- Relative medium CrossLaps amounts per osteoclast, Mean ± SD [1]: 0.88 ± 0.30
- Relative medium CrossLaps amounts per osteoclasts, Mean ± SD [1]: 0.88 ± 0.65
- Relative medium CrossLaps amounts per osteoclasts, replicates 1-6 [1]: 0.50 (2×) and 2.14 and 1.03 and 0.47 and 0.63
- Combined results on bone resorption (relative medium CrossLaps per osteoclast), Mean ± SD [1]: 0.88 ± 0.48

SMILES: O.O.O.O.O=C([O-])[O-].O=C([O-])[O-].O=C([O-])[O-].[La+3].[La+3] [LA 1000, lanthanum carbonate tetrahydrate]
- Relative medium CrossLaps amounts per osteoclast, replicates 1-6 [1]: 1.14 and 1.09 and 0.89 and 1.76 and 1.07 and 1.11
- Relative medium CrossLaps amounts per osteoclast, Mean ± SD [1]: 1.18 ± 0.30
- Relative medium CrossLaps amounts per osteoclasts, Mean ± SD [1]: 1.13 ± 0.51
- Relative medium CrossLaps amounts per osteoclasts, replicates 1-6 [1]: 0.70 and 0.59 and 1.69 and 1.40 and 1.68 and 0.73
- Combined results on bone resorption (relative medium CrossLaps per osteoclast), Mean ± SD [1]: 1.15 ± 0.40

SMILES: O.O.O.O.O=C([O-])[O-].O=C([O-])[O-].O=C([O-])[O-].[La+3].[La+3] [LA 5000, lanthanum carbonate tetrahydrate]
- Relative medium CrossLaps amounts per osteoclast, replicates 1-6 [1]: 1.39 and 0.78 and 2.70 and 1.18 and 0.76 and 1.21
- Relative medium CrossLaps amounts per osteoclast, Mean ± SD [1]: 1.34 ± 0.71
- Relative medium CrossLaps amounts per osteoclasts, Mean ± SD [1]: 1.20 ± 0.59
- Relative medium CrossLaps amounts per osteoclasts, replicates 1-6 [1]: 0.48 and 1.18 and 0.77 and 0.98 and 1.99 and 1.81
- Combined results on bone resorption (relative medium CrossLaps per osteoclast), Mean ± SD [1]: 1.27 ± 0.63

SMILES: O.O.O.O.O=C([O-])[O-].O=C([O-])[O-].O=C([O-])[O-].[La+3].[La+3] [LA 15000, lanthanum carbonate tetrahydrate]
- Effect on bone resorption / bone resorbing activity of mature osteoclasts, in words [1]: slight decrease
- Relative medium CrossLaps amounts per osteoclast, replicates 1-6 [1]: 0.57 (2×) and 0.58 and 0.96 and 2.53 and 1.11
- Relative medium CrossLaps amounts per osteoclast, Mean ± SD [1]: 1.05 ± 0.76
- Relative medium CrossLaps amounts per osteoclasts, Mean ± SD [1]: 0.63 ± 0.29
- Relative medium CrossLaps amounts per osteoclasts, replicates 1-6 [1]: 0.29 and 1.08 and 0.62 and 0.87 and 0.47 and 0.45
- Combined results on bone resorption (relative medium CrossLaps per osteoclast), Mean ± SD [1]: 0.84 ± 0.59

SMILES: O.O.O.O.O=C([O-])[O-].O=C([O-])[O-].O=C([O-])[O-].[La+3].[La+3] [LA, lanthanum carbonate tetrahydrate]
- Effect on amount of CrossLaps released into the culture medium or on the osteoclast number, in words ([1]; 100-15000 ng/ml lanthanum): no significant effect
- Bone resorption ([1]; Dose 100 ng/ml): 0
- Bone resorption ([1]; Dose 500 ng/ml): 0
- Bone resorption ([1]; Dose 1000 ng/ml): 0
- Bone resorption ([1]; Dose 5000 ng/ml): 0
- Bone resorption ([1]; Dose 15000 ng/ml): 0
- Effect on bone resorption / bone resorbing activity of mature osteoclasts, in words ([1]; listed as lanthanum): Some inhibition of bone resorption
- Effect on bone resorption / bone resorbing activity of mature osteoclasts, in words ([1]; listed as lanthanum (III) ion): no statistically significant effects
- Bone formation in growing dogs ([2]; dose of 2,000 mg/kg/day lanthanum): enhanced bone formation
- Bone volume and density compared to control animals ([2]; growing dogs, dose of 2,000 mg/kg/day lanthanum): significant increase
- Other bone parameters investigated, treated vs control group ([2]; growing immature dogs, 1000 mg/Kg/day of lanthanum carbonate orally twice daily, 13 weeks, iliac crest): no statistically significant difference
- Cytosolic calcium in osteoclasts [3]: concentration-dependant elevation of cytosolic calcium
- Calcium accumulation [4]: reduced calcium accumulation
- Endochondral mineralization [4]: inhibited endochondral mineralization
